In brackets after ≈: the same amount, converted by molar mass. Where two headings read alike, the source gives them in different places.
Columns and labels:
Wnt signal = assay: Detection of Wnt signal (TOPglow luciferase reporter, LiCl-stimulated); assay type: cell-based; details: Homo sapiens; HEK293 clone carrying pNeo-TOP reporter; LiCl stimulation; luciferase luminescence; read-out: Test Example 1 IC50 (concentration required for inhibiting the Wnt signal activity by 50%)
Method: pcDNA3.1(+) (invitrogen) was cleaved with restriction enzymes BglII and NotI, and an adapter BEHKS having a sequence shown below (containing restriction enzyme sites BglII, EcoRI, HindIII, KpnI, SacI and NotI) was inserted thereinto, thereby producing a plasmid pNeo-HKS.
Subsequently, a fragment having a length of about 2700 bp (containing a Wnt-responsive sequence and a luciferase gene), which was prepared by cleaving from a TOPglow plasmid contained in a TOPglow/FOPglow TCF Reporter Kit (upstate Catalog#17-366) with restriction enzymes HindIII and KpnI, was inserted between HindIII and KpnI in pNeo-HKS, thereby producing a plasmid pNeo-TOP. The plasmid pNeo-TOP was introduced into human fetus-derived renal cell strain HEK293, then a compound was selected using G418, and then a cell clone strain was established by a limiting dilution method. The cell clone strain was subjected to a Wnt signal detection test.
The cell clone strain was subcultured in a D-MEM glucose-rich culture medium (Wako Pure Chemical Industries, Ltd.) containing 10% FBS, and cells in a growth phase were used in the test. Cells were collected using trypsin-EDTA, the number of the cells was counted, and then the cells were suspended in a D-MEM glucose-rich culture medium containing 10% FBS so that the number of cells became 2×10^5 cells/mL. The cell suspension was added to a 96-well cell culture plate (Greiner Bio-One Co., Ltd., product number: 655083) in an amount of 0.1 mL/well and then cultured overnight in a 5% CO2 incubator (37° C.). After the culturing, a substance to be tested, which was dissolved in DMSO, was diluted with a D-MEM glucose-rich culture medium containing 10% of FBS and 80 mM of LiCl to produce a sample solution. The sample solution (0.1 mL) was added to each well and then cultured in a 5% CO2 incubator (37° C.) […]. Six hours after the addition of the sample solution, a supernatant was removed from each well, and then 50 μL of Bright-Glo™ Luciferase substrate (Promega, product number: E2620) was added thereto. The plate was put on a plate mixer for several seconds, and then the emission of light from each well was measured using a EnVision™ Multilabel plate reader (PerkinElmer Co., Ltd.). The Wnt signal activation rate (%) of each well was determined, and a concentration (IC50) which is required for inhibiting the Wnt signal activity of a substance of interest by 50% was calculated, wherein the luminosity of a well to which a sample solution was not added and LiCl was added was defined as a 100% Wnt signal activity and the luminosity of a well to which either of a sample solution or LiCl was not added was defined as a 0% Wnt signal activity.

[1] = Evaluation of metabolic stability; assay type: in vitro ADME, human; details: 0.2 mg/mL HLM, 0.1 μM test substance, 15 minutes at 37° C., with vs without NADPH production
Method: A test substance was dissolved in DMSO so that the concentration of the resultant solution became 20 mM, and the solution was diluted with DMSO so that the concentration of the resultant solution became 1 mM. The metabolic stability of the test substance was evaluated using a human liver microsome (HLM) in which human liver was pooled. An assay buffer solution contained 0.2 mg/mL of HLM, a 0.1 M of phosphate potassium buffer solution (pH 7.4), 0.1 mM of EDTA, 0.33 mM of NADP+, 8 mM of glucose-6-phosphate, 0.1 U/mL of glucose-6-phosphate dehydrogenase, 6 mM of MgCl2, 0.1 μM of a test substance (final concentration in DMSO: 0.01%) in 0.15 mL of the final incubation volume. Fifteen minutes after the initiation of the reaction at 37° C., 0.15 mL of a acetonitrile/methanol mixed solution (7:3, by volume) was added to the solution to terminate the reaction. After centrifugation, the resultant supernatant was analyzed by LC-MSMS, peak areas were compared under the presence or absence of the production of NADPH, and the residual ratio of the test substance was calculated.

[2] = Evaluation of solubility (DMSO stock into PBS, HPLC-UV); assay type: physicochemical; details: Dulbecco's phosphate-buffered saline pH 7, room temperature, about 15 minutes shaking, values greater than 200 μM regarded as 200 μM, read-out: Test Example 3 solubility
Method: To 0.25 mL of a test solution a mentioned below was added 2.5 μL of a DMSO solution having a compound concentration of 20 mM. The resultant solution was shaken at room temperature for about 15 minutes (the conditions for the shaking are mentioned below). Subsequently, a supernatant was collected by a suction filtration under a reduced pressure. A DMSO solution having a compound concentration of 200 μM was used as a standard solution, and the concentration of a compound in a filtrate which was quantified by a HPLC-UV method was employed as a solubility (rounded off to the whole number). In this evaluation, since a value 200 μM became the upper limit operationally, all of quantification values greater than 200 μM were regarded as 200 μM.
Test solution: GIBCO (registered trade name) Dulbecco's phosphate-buffered saline (pH 7, Life Technologies Corporation)
Conditions for shaking: a microplate shaker N-704 (Nissinrika Corporation), speed 6

[3] = PAMPA test (parallel artificial membrane permeability assay); assay type: in vitro ADME; details: phosphate buffer pH 6.8, about 200 μM, about 5 hours, room temperature, read-out: Test Example 4 membrane permeation coefficient Pe
Method: A test solution (see below) was stirred while shaking at room temperature for about 5 hours using a 96-well PAMPA plate (BD Biosciences) in which a lipid had been precoated onto a polyvinylidene fluoride (PVDF) film to evaluate the membrane permeation coefficient Pe (cm/s) of each compound dissolved in the test solution (concentration: about 200 μM) upon the transport of the compound from a donor side to an acceptor side through a lipid membrane. The Pe value was calculated in accordance with equations 1 and 2, and the concentration of the compound on the donor side and the acceptor side was measured by a HPLC-UV method. In 0.3 mL of the test solution on the donor side is contained about 1% (v/v) of DMSO, since 3 μL of a DMSO solution containing the compound at a concentration of 20 mM was added to the test solution.
Test solution: a phosphate buffer solution having a pH value of 6.8 (90 mM of phosphate, 48 mM of NaCl, 5.4 mM of KCl)
Conditions for stirring: a multishaker MS-300 (AS ONE Corporation), 350 rpm
[formula] CD(t): compound concentration in donor well at time t CA(t): compound concentration in acceptor well at time t VD: donor well volume (0.3 mL) VA: acceptor well volume (0.2 mL) A: filter area (0.3 cm^2)

[4] = aqueous buffer, kinetic from dmso stock

Row | Compound | IC50 (Wnt signal) | Test Example 2 residual ratio of the test substance [1] | solubility [2, 4] | Papp [3] | solubility [2]
1 | C=CCN1CC(=O)N2[C@@H](Cc3ccc(O)cc3)C(=O)N(Cc3ccc(F)c(N4CC(N5CCN(C)CC5)C4)n3)C[C@@H]2N1C(=O)NCc1ccccc1 [Example 8, (6S,9aS)-N-Benzyl-8-((5-fluoro-6-(3-(4-methylpiperazin-1-yl)azetidin-1-yl)pyridin-2-yl)methyl)-6-((4-hydroxyphenyl)methyl)-4,7-dioxo-2-(prop-2-en-1-yl)-octahydro-1H-pyrazino[2,1-c][1,2,4]triazine-1-carboxamide] | 200 nM | 40% | 195 µM (≈ 139 µg/mL) | 2.3 ×10⁻⁶ cm/s | –
2 | C=CCN1CC(=O)N2[C@@H](Cc3ccc(O)cc3)C(=O)N(Cc3cccc(N4CC(N5CCN(C(C)C)CC5)C4)n3)C[C@@H]2N1C(=O)NCc1ccccc1 [Example 9, (6S,9aS)-N-Benzyl-6-((4-hydroxyphenyl)methyl)-4,7-dioxo-2-(prop-2-en-1-yl)-8-((6-(3-(4-(propan-2-yl)piperazin-1-yl)azetidin-1-yl)pyridin-2-yl)methyl)-octahydro-1H-pyrazino[2,1-c][1,2,4]triazine-1-carboxamide] | 150 nM | 34% | 194 µM (≈ 140 µg/mL) | 1.38 ×10⁻⁶ cm/s | –
3 | C=CCN1CC(=O)N2[C@@H](Cc3c(F)cc(O)cc3F)C(=O)N(Cc3cccc(N4CC(N5CCN(CC)CC5)C4)n3)C[C@@H]2N1C(=O)NCc1ccccc1 [Example 13, (6S,9aS)-N-Benzyl-6-((2,6-difluoro-4-hydroxyphenyl)methyl)-8-((6-(3-(4-ethylpiperazin-1-yl)azetidin-1-yl)pyridin-2-yl)methyl)-4,7-dioxo-2-(prop-2-en-1-yl)-octahydro-1H-pyrazino[2,1-c][1,2,4]triazine-1-carboxamide] | 140 nM | 56% | – | 0.52 ×10⁻⁶ cm/s | 200 µM (≈ 149 µg/mL)
4 | C=CCN1CC(=O)N2[C@@H](Cc3c(F)cc(O)cc3F)C(=O)N(Cc3cccc(N4CC(N5CCN(C)CC5)C4)n3)C[C@@H]2N1C(=O)NCc1ccccc1 [Example 14, (6S,9aS)-N-Benzyl-6-((2,6-difluoro-4-hydroxyphenyl)methyl)-8-((6-(3-(4-methylpiperazin-1-yl)azetidin-1-yl)pyridin-2-yl)methyl)-4,7-dioxo-2-(prop-2-en-1-yl)-octahydro-1H-pyrazino[2,1-c][1,2,4]triazine-1-carboxamide] | 270 nM | 69% | 197 µM (≈ 144 µg/mL) | 0.39 ×10⁻⁶ cm/s | –
5 | C=CCN1CC(=O)N2[C@@H](Cc3c(F)cc(O)cc3F)C(=O)N(Cc3cccc(N4CC(N5CCN(C)[C@@H](C)C5)C4)n3)C[C@@H]2N1C(=O)NCc1ccccc1 [Example 16, (6S,9aS)-N-Benzyl-6-((2,6-difluoro-4-hydroxyphenyl)methyl)-8-((6-(3-((3S)-3,4-dimethylpiperazin-1-yl)azetidin-1-yl)pyridin-2-yl)methyl)-4,7-dioxo-2-(prop-2-en-1-yl)-octahydro-1H-pyrazino[2,1-c][1,2,4]triazine-1-carboxamide] | 220 nM | 63% | 197 µM (≈ 147 µg/mL) | 0.51 ×10⁻⁶ cm/s | –

Compounds with a lower IC50 (Wnt signal), results first:

Row | IC50 (Wnt signal) | Test Example 2 residual ratio of the test substance [1] | solubility [2, 4] | Papp [3] | solubility [2] | Compound
6 | 44 nM | 28% | 184 µM (≈ 134 µg/mL) | 3.75 ×10⁻⁶ cm/s | – | C=CCN1CC(=O)N2[C@@H](Cc3ccc(O)cc3F)C(=O)N(Cc3ccc(F)c(N4CC(N5CCN(C)CC5)C4)n3)C[C@@H]2N1C(=O)NCc1ccccc1 [Example 10, (6S,9aS)-N-Benzyl-6-((2-fluoro-4-hydroxyphenyl)methyl)-8-((5-fluoro-6-(3-(4-methylpiperazin-1-yl)azetidin-1-yl)pyridin-2-yl)methyl)-4,7-dioxo-2-(prop-2-en-1-yl)-octahydro-1H-pyrazino[2,1-c][1,2,4]triazine-1-carboxamide]
7 | 39 nM | 26% | 192 µM (≈ 142 µg/mL) | 2.55 ×10⁻⁶ cm/s | – | C=CCN1CC(=O)N2[C@@H](Cc3ccc(O)cc3F)C(=O)N(Cc3cccc(N4CC(N5CCN(C(C)C)CC5)C4)n3)C[C@@H]2N1C(=O)NCc1ccccc1 [Example 11, (6S,9aS)-N-Benzyl-6-((2-fluoro-4-hydroxyphenyl)methyl)-4,7-dioxo-2-(prop-2-en-1-yl)-8-((6-(3-(4-(propan-2-yl)piperazin-1-yl)azetidin-1-yl)pyridin-2-yl)methyl)-octahydro-1H-pyrazino[2,1-c][1,2,4]triazine-1-carboxamide]
8 | 96 nM | 38% | 188 µM (≈ 142 µg/mL) | 0.87 ×10⁻⁶ cm/s | – | C=CCN1CC(=O)N2[C@@H](Cc3c(F)cc(O)cc3F)C(=O)N(Cc3cccc(N4CC(N5CCN(C(C)C)CC5)C4)n3)C[C@@H]2N1C(=O)NCc1ccccc1 [Example 12, (6S,9aS)-N-Benzyl-6-((2,6-difluoro-4-hydroxyphenyl)methyl)-4,7-dioxo-2-(prop-2-en-1-yl)-8-((6-(3-(4-(propan-2-yl)piperazin-1-yl)azetidin-1-yl)pyridin-2-yl)methyl)-octahydro-1H-pyrazino[2,1-c][1,2,4]triazine-1-carboxamide]
9 | 75 nM | 45% | 195 µM (≈ 142 µg/mL) | 2.38 ×10⁻⁶ cm/s | – | C=CCN1CC(=O)N2[C@@H](Cc3ccc(O)cc3F)C(=O)N(Cc3cccc(N4CC(N5CCN(C)C[C@@H]5C)C4)n3)C[C@@H]2N1C(=O)NCc1ccccc1 [Example 15, (6S,9aS)-N-Benzyl-8-((6-(3-((2S)-2,4-dimethylpiperazin-1-yl)azetidin-1-yl)pyridin-2-yl)methyl)-6-((2-fluoro-4-hydroxyphenyl)methyl)-4,7-dioxo-2-(prop-2-en-1-yl)-octahydro-1H-pyrazino[2,1-c][1,2,4]triazine-1-carboxamide]

Reference: patent publication US9174998B2, “(6S,9aS)-N-benzyl-6-[(4-hydroxyphenyl)methyl]-4,7-dioxo-8-({6-[3-(piperazin-1-yl)azetidin-1-yl]pyridin-2-yl}methyl)-2-(prop-2-en-1-yl)-octahydro-1H-pyrazino[2,1-c][1,2,4]triazine-1-carboxamide compound” (Eisai R&D Management Co., Ltd., priority 2013, dated 2015)
